32 compounds from US6004957A, “Sulfonamide inhibitors of aspartyl protease” (Vertex Pharmaceuticals, Incorporated, priority 1998, dated 1999) can be followed below.

The first test has as its system HIVIIIb in CCRM-CEM cells. The experiment in a line: Anti-viral potency in CCRM-CEM cells acutely infected with HIVIIIb (method of Meek et al.), extracellular p24 antigen. Format: cell-based, HIV-1. The settings on record: HIV replication, Table VIII, read-out: IC90 Range. The text has this: As discussed above, the novel compounds of the present invention are excellent ligands for aspartyl proteases, particularly HIV-1 and HIV-2 proteases. Accordingly, these compounds are capable of targeting and inhibiting late stage events in HIV replication, i.e., the processing of the viral polyproteins by HIV encoded proteases. […] Because aspartyl protease is essential for the production of mature virions, inhibition of that processing effectively blocks the spread of virus by inhibiting the production of infectious virions, particularly from chronically infected cells. […] Other anti-viral assays have confirmed the potency of these compounds.
Compounds of formula I were tested for their antiviral potency in several virological assays. In the first assay, the compounds were added as a solution in dimethylsulfoxide (DMSO) to a test cell culture of CCRM-CEM cells, a strain of CD4^+ human T-cell lymphoma cells, previously acutely infected with HIVIIIb using standard protocols (see Meek, T. D. et al., "Inhibition of HIV-1 protease in infected T-lymphocytes by synthetic peptide analogues", Nature, 343, p. 90 (1990). Preferred compounds are those which are able to inhibit 90% of viral infectivity at a concentration of 1 μM or less. More preferred compounds are those which are able to inhibit 90% of viral infectivity at a concentration of 100 nM or less.
The effect of the compounds on inhibiting the replication of the virus was measured by determining the HIV extracellular p24 antigen concentration using a commercial enzyme immunoassay (obtained from Coulter Corporation, Hialeah, Fla.).
On to “(S)-N-1-(3-((3-Acetylamino-4-fluoro-benzenesulfonyl)-benzyl-amino)-(1S,2 syn)-1-benzyl-2-hydroxy-propyl)-2-((quinoline-2-carbonyl)-amino)-succinamide and (S)-N-1-(3-((4-Acetylamino-3-fluoro-benzenesulfonyl)-benzyl-amino)-(1S,2 syn)-1-benzyl-2-hydroxy-propyl)-2-((quinoline-2-carbonyl)-amino)-succinamide [Compound 2]”, for which the IC90 lay within 101 to 1000 nM.

The same test, now with this note: Human immunodeficiency virus 1, HIV replication, Table VIII, read-out: IC90 Range.
As to `CC(C)CN(C[C@@H](O)[C@H](Cc1ccccc1)NC(=O)OCc1ccccc1)S(=O)(=O)c1ccc2nonc2c1` [Compound 65], the IC90 lay in the range of 1000 to 10000 nM.
The same measure, in the same setting: with `CC(C)CN(C[C@@H](O)[C@H](Cc1ccccc1)NC(=O)O[C@H]1CCOC1)S(=O)(=O)c1cc(Cl)c(Cl)s1` [Compound 95] the figure was 1000 to 10000 nM; with `CC(=O)Nc1ccc(S(=O)(=O)N(CC(C)C)C[C@@H](O)[C@H](Cc2ccccc2)NC(=O)OC2CCOC2)cc1` (stereo partly drawn) [Compound 86, N-(4-(((2 syn,3S)-2-Hydroxy-4-phenyl-3-((R)-tetrahydrofuran-3-yloxycarbonylamino)-butyl)-isobutyl-sulfamoyl-phenyl)-acetamide and N-(4-(((2 syn,3S)-2-Hydroxy-4-phenyl-3-((S)-tetrahydrofuran-3-yloxycarbonylamino)-butyl)-isobutyl-sulfamoyl)-phenyl)-acetamide], 101 to 1000 nM.
Turning to `CC(=O)Nc1cccc(S(=O)(=O)N(CC(C)C)C[C@@H](O)[C@H](Cc2ccccc2)NC(=O)[C@H](CC(N)=O)NC(=O)c2ccc3ccccc3n2)c1` [Compound 19, (S)-N-1-(3-((3-Acetylamino-benzenesulfonyl)-isobutyl-amino)-(1S,2 syn)-1-benzyl-2-hydroxy-propyl)-2-((quinoline-2-carbonyl)-amino)-succinamide], the IC90 was 101 to 1000 nM.
Same read-out and setting: as for `CC(C)CN(C[C@@H](O)[C@H](Cc1ccccc1)NC(=O)O[C@H]1CCOC1)S(=O)(=O)c1ccc([N+](=O)[O-])cc1` [Compound 167, N-((2 syn,3S)-2-Hydroxy-4-phenyl-3-((S)-tetrahydrofuran-3-yloxycarbonylamino)-butyl)-N-isobutyl-4-nitro-benzenesulfonamide], the figure is 101 to 1000 nM.
On the same count and under the same terms, as for `CC(C)CN(C[C@@H](O)[C@H](Cc1ccccc1)NC(=O)[C@H](CC(N)=O)NC(=O)c1ccc2ccccc2n1)S(=O)(=O)N(C)C` [Compound 21, N-1-((1S-2 syn)-1-Benzyl-2-hydroxy-3-(1-isobutyl-3,3-dimethylsulfonylurea)-propyl)-2-((quinoline-2-carbonyl)-amino)-succinamide], the figure is under 100 nM.
On the same count and under the same terms, as for `CC(=O)Nc1ccc(S(=O)(=O)N(CC2CCCC2)C[C@@H](O)[C@H](Cc2ccccc2)NC(=O)OCc2cccnc2)cc1` [Compound 147, N-(4-(Cyclopentylmethyl-((2 syn,3S)-2-hydroxy-4-phenyl-3-(pyridin-3-yl-methoxycarbonylamino)-butyl)-sulfamoyl)-phenyl)-acetamide], the figure is 101 to 1000 nM; as for `O=C(N[C@@H](Cc1ccccc1)[C@H](O)CN(CC1CCCC1)S(=O)(=O)c1ccccc1)O[C@H]1CCOC1` [Compound 148, N-Cyclopentylmethyl-N-((2 syn,3S)-2-hydroxy-4-phenyl-3-((S)-tetrahydrofuran-3-yloxycarbonylamino)-butyl)-benzenesulfonamide], under 100 nM.
As to `NC(=O)C[C@H](NC(=O)c1ccc2ccccc2n1)C(=O)N[C@@H](Cc1ccccc1)[C@H](O)CN(Cc1ccccc1)S(=O)(=O)c1cccc(C(=O)O)c1` [Compound 7], the IC90 is 10000 to 40000 nM.
The same measure, in the same setting: as for `CC(=O)Nc1ccc(S(=O)(=O)N(CC(C)C)C[C@@H](O)[C@H](Cc2ccccc2)NC(=O)[C@H](CC(N)=O)NC(=O)c2ccc3ccccc3n2)cc1` [Compound 17, (S)-N-1-(1-(S)-Benzyl-3-((4-acetylamino-benzenesulfonyl)-isobutyl-amino)-2-(syn)-hydroxy-propyl)-2-((quinoline-2-carbonyl)-amino)-succinamide], the figure is 101 to 1000 nM; as for `CCOC(=O)N[C@@H](Cc1ccccc1)[C@H](O)CN(CC(C)C)S(=O)(=O)c1ccc(F)cc1` [Compound 121], 1000 to 10000 nM; as for `CC(C)CN(C[C@@H](O)[C@H](Cc1ccccc1)NC(=O)OCC1CCOC1)S(=O)(=O)c1ccc(Cl)c(Cl)c1` (some centres unmarked) [Compound 85], 1000 to 10000 nM.
On the same count and under the same terms, as for `CC(=O)Nc1ccc(S(=O)(=O)N(CC(C)C)C[C@@H](O)[C@H](Cc2ccccc2)NC(=O)[C@H](CC(N)=O)NC(=O)c2ccc3ccccc3n2)cc1F` [Compound 15, (S)-N-1-(3-((4-Acetylamino-3-fluoro-benzenesulfonyl)-isobutyl-amino)-(1S,2 syn)-1-benzyl-2-hydroxy-propyl)-2-((quinoline-2-carbonyl)-amino)-succinamide], the figure is under 100 nM; as for `CC(C)CN(C[C@@H](O)[C@H](Cc1ccccc1)NC(=O)OCc1ccccc1)S(=O)(=O)c1ccc(F)cc1` [Compound 38], 1000 to 10000 nM.
Still for that read-out and setting: as for `COc1ccc(S(=O)(=O)N(CC(C)C)C[C@@H](O)[C@H](Cc2ccccc2)NC(=O)O[C@H]2CCOC2)cc1` [Compound 100, N-((2 syn,3S)-2-Hydroxy-4-phenyl-3-((S)-tetrahydrofuran-3-yloxycarbonylamino)-butyl)-N-isobutyl-4-methoxy-benzenesulfonamide], the figure is under 100 nM; as for `O=C(N[C@@H](Cc1ccccc1)[C@H](O)CN(CC1CCCC1)S(=O)(=O)c1ccc(O)cc1)OCc1cccnc1` [Compound 166, N-cyclopentylmethyl-4-hydroxy-N-((2 syn,3S)-2-hydroxy-4-phenyl-3-(pyridin-3-yl-methoxycarbonylamino)-butyl)-benzenesulfonamide], under 100 nM.
On to `CC(=O)Nc1nc(C)c(S(=O)(=O)N(Cc2ccccc2)C[C@@H](O)[C@H](Cc2ccccc2)NC(=O)[C@H](CC(N)=O)NC(=O)c2ccc3ccccc3n2)s1` [Compound 5], for which the IC90 is 101 to 1000 nM.
On the same count and under the same terms, with `CC(C)CN(C[C@@H](O)[C@H](Cc1ccccc1)NC(=O)OC(C)(C)C)S(=O)(=O)c1ccccc1` [Compound 45] the figure was 1000 to 10000 nM; with `CC(C)CN(C[C@@H](O)[C@H](Cc1ccccc1)NC(=O)O[C@H]1CCOC1)S(=O)(=O)c1ccc(Cl)c(Cl)c1` [Compound 37, 3,4-Dichloro-N-((2 syn,3S)-2-hydroxy-4-phenyl-3-((S)-tetrahydrofuran-3-yloxycarbonylamino)-butyl)-N-isobutyl-benzenesulfonamide], 101 to 1000 nM; with `CC(C)CN(C[C@@H](O)[C@H](Cc1ccccc1)NC(=O)O[C@H]1CCOC1)S(=O)(=O)c1ccc(Cl)cc1` [Compound 99, 4-Chloro-N-((2 syn,3S)-2-hydroxy-4-phenyl-3-((S)-tetrahydrofuran-3-yloxycarbonylamino)-butyl)-isobutyl-benzenesulfonamide], 101 to 1000 nM.
Same read-out and setting: as for `NC(=O)C[C@H](NC(=O)c1ccc2ccccc2n1)C(=O)N[C@@H](Cc1ccccc1)[C@H](O)CN(Cc1ccccc1)S(=O)(=O)c1ccccc1` [Compound 1], the figure is 1000 to 10000 nM; as for `CC(=O)Nc1ccc(S(=O)(=O)N(CC(C)C)C[C@@H](O)[C@H](Cc2ccccc2)NC(=O)OC(C)C)cc1` [Compound 29], 1000 to 10000 nM; as for `CC(=O)Nc1ccc(S(=O)(=O)N(CC(C)C)C[C@@H](O)[C@H](Cc2ccccc2)NC(=O)OCc2cccnc2)cc1` [Compound 44, N-(4-(((2 syn,3S)-2-Hydroxy-4-phenyl-3-(pyridin-3-yl-methoxycarbonylamino)-butyl)-isobutyl-sulfamoyl)-phenyl)-acetamide], 101 to 1000 nM.
Regarding `CC(C)CN(C[C@@H](O)[C@H](Cc1ccccc1)NC(=O)OCc1ccccc1)S(=O)(=O)c1ccc(N)c([N+](=O)[O-])c1` [Compound 63], the IC90 lay within 1000 to 10000 nM.
For `NC(=O)C[C@H](NC(=O)c1ccc2ccccc2n1)C(=O)N[C@@H](Cc1ccccc1)[C@H](O)CN(Cc1ccccc1)S(=O)(=O)c1cccc(C(F)(F)F)c1` [Compound 4], the IC90 lay within 1000 to 10000 nM.
The same measure, in the same setting: with `COC(=O)N[C@@H](Cc1ccccc1)[C@H](O)CN(CC(C)C)S(=O)(=O)c1ccc(F)cc1` [Compound 104] the figure was 1000 to 10000 nM; with `CC(C)CN(C[C@@H](O)[C@H](Cc1ccccc1)NC(=O)OC(C)(C)C)S(=O)(=O)c1ccc2nonc2c1` [Compound 64], 1000 to 10000 nM.
Same read-out and setting: with `CC(=O)Nc1ccc(S(=O)(=O)N(CC(C)C)C[C@@H](O)[C@H](Cc2ccccc2)NC(=O)OCc2ccccc2)cc1` [Compound 61] the figure was 1000 to 10000 nM.
Still for that read-out and setting: as for `COc1ccc(S(=O)(=O)N(CC(C)C)C[C@@H](O)[C@H](Cc2ccccc2)NC(=O)OCc2ccncc2)cc1` [Compound 163, N-((2 syn,3S)-2-Hydroxy-4-phenyl-3-(pyridin-4-yl-methoxycarbonylamino)-butyl)-N-isobutyl-4-methoxy-benzenesulfonamide], the figure is 101 to 1000 nM; as for `CC(C)CN(C[C@@H](O)[C@H](Cc1ccccc1)NC(=O)O[C@H]1CCOC1)S(=O)(=O)c1ccc(F)cc1` [Compound 35, 4-Fluoro-N-((2 syn,3S)-2-hydroxy-4-phenyl-3-((S)-tetrahydrofuran-3-yloxycarbonylamino)-butyl)-N-isobutyl-benzenesulfonamide], 101 to 1000 nM.
Take `CC(C)CN(C[C@@H](O)[C@H](Cc1ccccc1)NC(=O)O[C@H]1CCOC1)S(=O)(=O)c1ccc(F)c(F)c1` [Compound 124]: the IC90 was 10000 to 40000 nM.

A word on the IC90: it is the concentration needed for an effect of 90%.
